Reference: publication PMC9966578, “Barbamide Displays Affinity for Membrane-Bound Receptors and Impacts Store-Operated Calcium Entry in Mouse Sensory Neurons” (Marine Drugs, 2023)

Tests used:
Assay in all cases: radioligand binding assay (NIMH PDSP), secondary screen
[1] = target: T1, dopamine D3 receptor (D3R) (Homo sapiens, UniProt P35462)
T1 construct: gene DRD3

[2] = target: T2, kappa opioid receptor (KOR) (Homo sapiens, UniProt P41145)
T2 construct: gene OPRK1

[3] = target: T3, dopamine transporter (DAT) (Homo sapiens, UniProt Q01959)
T3 construct: gene SLC6A3
T3 sequence (Q01959 whole entry): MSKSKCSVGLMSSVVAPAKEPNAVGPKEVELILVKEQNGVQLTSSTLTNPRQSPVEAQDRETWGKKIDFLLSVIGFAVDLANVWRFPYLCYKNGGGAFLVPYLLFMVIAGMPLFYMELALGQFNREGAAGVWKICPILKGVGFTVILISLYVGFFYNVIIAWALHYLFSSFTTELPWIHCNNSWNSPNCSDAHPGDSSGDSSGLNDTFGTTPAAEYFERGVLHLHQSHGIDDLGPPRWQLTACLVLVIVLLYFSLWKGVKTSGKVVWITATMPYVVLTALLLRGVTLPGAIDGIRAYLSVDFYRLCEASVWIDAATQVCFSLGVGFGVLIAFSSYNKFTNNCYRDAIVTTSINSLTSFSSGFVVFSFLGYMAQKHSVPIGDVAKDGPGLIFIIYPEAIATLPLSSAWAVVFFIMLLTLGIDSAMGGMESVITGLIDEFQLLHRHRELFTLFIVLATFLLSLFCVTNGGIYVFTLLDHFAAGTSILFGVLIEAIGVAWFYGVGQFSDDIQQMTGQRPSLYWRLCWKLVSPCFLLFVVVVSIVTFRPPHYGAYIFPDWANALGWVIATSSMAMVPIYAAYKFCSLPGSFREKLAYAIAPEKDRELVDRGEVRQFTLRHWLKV

T2 sequence (P41145 whole entry): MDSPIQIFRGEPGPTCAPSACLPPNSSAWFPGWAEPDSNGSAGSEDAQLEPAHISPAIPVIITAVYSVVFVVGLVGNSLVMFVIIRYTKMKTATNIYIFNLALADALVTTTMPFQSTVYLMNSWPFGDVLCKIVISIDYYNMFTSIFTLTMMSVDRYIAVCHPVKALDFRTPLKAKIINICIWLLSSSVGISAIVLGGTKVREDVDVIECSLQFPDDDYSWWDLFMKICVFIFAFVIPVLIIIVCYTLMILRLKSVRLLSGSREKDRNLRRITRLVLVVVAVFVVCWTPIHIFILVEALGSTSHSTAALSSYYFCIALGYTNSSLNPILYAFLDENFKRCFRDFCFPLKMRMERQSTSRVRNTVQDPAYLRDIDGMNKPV
T1 sequence (P35462 whole entry): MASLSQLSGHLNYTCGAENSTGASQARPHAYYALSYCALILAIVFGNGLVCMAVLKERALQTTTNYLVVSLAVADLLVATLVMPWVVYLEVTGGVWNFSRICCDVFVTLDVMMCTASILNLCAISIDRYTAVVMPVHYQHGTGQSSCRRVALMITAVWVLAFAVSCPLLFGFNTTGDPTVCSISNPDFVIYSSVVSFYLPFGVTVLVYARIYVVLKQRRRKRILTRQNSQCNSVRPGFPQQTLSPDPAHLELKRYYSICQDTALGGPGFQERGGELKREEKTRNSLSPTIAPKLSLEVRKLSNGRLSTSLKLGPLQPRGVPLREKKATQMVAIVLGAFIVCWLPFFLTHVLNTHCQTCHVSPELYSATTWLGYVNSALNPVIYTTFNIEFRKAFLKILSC

## CO/C(=C/C(=O)N(C)C(Cc1ccccc1)c1nccs1)CC(C)C(Cl)(Cl)Cl (stereo not drawn) [compound 1, barbamide]
[1]
  Ki: 446 nM
[2]
  Ki: 79.1 nM
[3]
  Ki: 3100 nM
